According to ChEMBL document CHEMBL1148343, “Fragment-based drug discovery” (J Med Chem, 2004):

Assays:
[1] = Oral bioavailability was determined; Not orally available; format: ADME, organism-based; conditions: in vivo
Human papillomavirus [2] = assay: Inhibitory concentration against DNA-binding domain of the human papillomavirus protein E2; format: functional
Human papillomavirus [3] = assay: Dissociation constant against DNA-binding domain of the human papillomavirus protein E2; format: functional
[4] = target: Neuraminidase (Influenza A virus (A/Puerto Rico/8/1934(H1N1)), UniProt P03468)
Sequence of Neuraminidase (Influenza A virus (A/Puerto Rico/8/1934(H1N1)), UniProt P03468) (P03468 whole entry): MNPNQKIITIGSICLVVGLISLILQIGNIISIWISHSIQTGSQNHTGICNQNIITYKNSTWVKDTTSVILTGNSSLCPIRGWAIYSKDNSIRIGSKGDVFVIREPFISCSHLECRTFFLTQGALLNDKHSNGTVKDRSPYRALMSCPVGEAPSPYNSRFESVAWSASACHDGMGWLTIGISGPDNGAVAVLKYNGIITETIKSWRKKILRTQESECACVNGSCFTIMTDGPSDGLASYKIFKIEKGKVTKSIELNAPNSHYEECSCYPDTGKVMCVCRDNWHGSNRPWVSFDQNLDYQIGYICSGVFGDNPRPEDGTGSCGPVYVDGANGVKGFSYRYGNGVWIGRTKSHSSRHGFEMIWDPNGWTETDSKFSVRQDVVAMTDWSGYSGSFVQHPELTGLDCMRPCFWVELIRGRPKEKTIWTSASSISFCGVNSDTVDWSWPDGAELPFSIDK
Description: Inhibition of influenza A viral enzyme neuraminidase

Stromelysin-1 [5] = target: T1, Stromelysin-1 (Homo sapiens, UniProt P08254)
T1 sequence (P08254 whole entry): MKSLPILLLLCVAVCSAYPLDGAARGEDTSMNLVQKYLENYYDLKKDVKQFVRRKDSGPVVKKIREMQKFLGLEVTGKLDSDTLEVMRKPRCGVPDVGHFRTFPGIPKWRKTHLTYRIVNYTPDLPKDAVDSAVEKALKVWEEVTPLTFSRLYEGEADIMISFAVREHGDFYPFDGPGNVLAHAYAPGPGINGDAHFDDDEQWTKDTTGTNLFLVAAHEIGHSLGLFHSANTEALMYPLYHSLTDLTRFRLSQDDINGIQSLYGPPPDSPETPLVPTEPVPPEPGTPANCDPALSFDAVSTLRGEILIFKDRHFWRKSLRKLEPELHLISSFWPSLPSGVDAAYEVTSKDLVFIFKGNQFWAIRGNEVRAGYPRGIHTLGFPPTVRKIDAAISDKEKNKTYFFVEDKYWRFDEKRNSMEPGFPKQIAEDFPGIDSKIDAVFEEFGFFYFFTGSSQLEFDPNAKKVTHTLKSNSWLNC
Description: Inhibition of Matrix Metalloprotease-3 (MMP-3)

Caspase-3 = Caspase-3 (Homo sapiens, UniProt P42574); assay: Binding affinity against Caspase-3
Sequence of Caspase-3 (P42574 29-175 limits assumed): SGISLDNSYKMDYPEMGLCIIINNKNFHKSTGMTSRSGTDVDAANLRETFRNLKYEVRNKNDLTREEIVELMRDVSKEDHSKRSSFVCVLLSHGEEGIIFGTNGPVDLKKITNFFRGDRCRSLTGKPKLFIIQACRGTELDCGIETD
Sequence of Caspase-3 (P42574 176-277 limits assumed): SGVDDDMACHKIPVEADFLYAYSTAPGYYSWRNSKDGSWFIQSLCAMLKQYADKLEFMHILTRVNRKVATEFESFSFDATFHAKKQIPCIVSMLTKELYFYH

[6] = Dissociation constant against Erythromycin-Resistance Methylase AM
Interstitial collagenase = Interstitial collagenase (Homo sapiens, UniProt P03956)
Sequence of Interstitial collagenase (P03956 whole entry): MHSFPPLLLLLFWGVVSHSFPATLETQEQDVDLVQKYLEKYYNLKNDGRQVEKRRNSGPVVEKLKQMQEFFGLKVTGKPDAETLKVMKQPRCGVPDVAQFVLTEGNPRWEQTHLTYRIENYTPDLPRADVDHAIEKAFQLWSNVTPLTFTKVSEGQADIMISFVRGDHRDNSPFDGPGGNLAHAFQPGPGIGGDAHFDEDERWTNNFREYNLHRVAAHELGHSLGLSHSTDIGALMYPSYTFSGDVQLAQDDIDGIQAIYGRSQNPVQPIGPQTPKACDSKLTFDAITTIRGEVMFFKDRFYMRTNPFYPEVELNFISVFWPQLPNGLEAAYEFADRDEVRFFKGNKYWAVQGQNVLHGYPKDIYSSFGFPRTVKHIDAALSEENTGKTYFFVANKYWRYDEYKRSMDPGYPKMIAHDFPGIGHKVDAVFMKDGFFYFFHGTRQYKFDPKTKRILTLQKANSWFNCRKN
Description: Inhibition of Matrix Metalloprotease-1 (MMP-1)

Collagenase 3 = Collagenase 3 (Homo sapiens, UniProt P45452); assay: Inhibition of Matrix Metalloprotease-13 (MMP-13)
Nucleic Acid = assay: Dissociation constant towards Mutant U1061A RNA; format: nucleic-acid assay
[7] = target: Mitogen-activated protein kinase 10 (Homo sapiens, UniProt P53779); assay: Affinity for c-Jun N-terminal kinase 3
Sequence of Mitogen-activated protein kinase 10 (P53779 whole entry): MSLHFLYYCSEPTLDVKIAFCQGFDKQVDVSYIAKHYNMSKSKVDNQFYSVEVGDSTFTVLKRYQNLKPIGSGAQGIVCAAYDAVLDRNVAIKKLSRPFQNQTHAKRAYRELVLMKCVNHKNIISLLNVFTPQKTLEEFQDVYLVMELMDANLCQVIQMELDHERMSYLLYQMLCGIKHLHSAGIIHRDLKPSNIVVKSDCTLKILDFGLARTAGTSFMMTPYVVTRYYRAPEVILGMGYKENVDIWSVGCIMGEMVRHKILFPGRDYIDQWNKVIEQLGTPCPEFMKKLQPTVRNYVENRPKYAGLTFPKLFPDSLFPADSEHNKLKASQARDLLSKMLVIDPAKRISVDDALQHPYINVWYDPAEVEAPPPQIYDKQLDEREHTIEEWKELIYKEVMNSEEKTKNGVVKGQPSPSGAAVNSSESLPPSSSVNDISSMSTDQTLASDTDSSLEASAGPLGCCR

[8] = Oral bioavailability; format: ADME, organism-based; conditions: eutheria, in vivo
[9] = target: Proto-oncogene tyrosine-protein kinase Src (Homo sapiens, UniProt P12931); assay: Inhibition of c-Src tyrosine kinase
Sequence of Proto-oncogene tyrosine-protein kinase Src (P12931 2-536 limits assumed): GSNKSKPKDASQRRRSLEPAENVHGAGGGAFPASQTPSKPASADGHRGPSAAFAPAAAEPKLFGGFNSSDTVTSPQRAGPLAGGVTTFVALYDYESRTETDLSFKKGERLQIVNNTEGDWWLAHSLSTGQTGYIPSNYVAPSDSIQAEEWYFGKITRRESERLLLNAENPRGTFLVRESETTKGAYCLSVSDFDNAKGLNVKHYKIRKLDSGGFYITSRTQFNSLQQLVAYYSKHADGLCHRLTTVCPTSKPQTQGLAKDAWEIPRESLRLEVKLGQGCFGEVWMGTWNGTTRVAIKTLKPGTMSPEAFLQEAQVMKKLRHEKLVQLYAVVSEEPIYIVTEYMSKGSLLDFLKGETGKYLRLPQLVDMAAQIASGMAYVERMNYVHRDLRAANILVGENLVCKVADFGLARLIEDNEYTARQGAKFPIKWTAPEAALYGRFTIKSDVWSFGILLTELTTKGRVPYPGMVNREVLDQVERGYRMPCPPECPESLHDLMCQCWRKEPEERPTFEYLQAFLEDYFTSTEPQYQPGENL

Acetylcholinesterase [10] = target: Acetylcholinesterase (Rattus norvegicus, UniProt P37136); assay: Inhibitory concentration against Acetylcholinesterase in rat brain; format: tissue-based
Sequence of Acetylcholinesterase (Rattus norvegicus, UniProt P37136) (P37136 whole entry): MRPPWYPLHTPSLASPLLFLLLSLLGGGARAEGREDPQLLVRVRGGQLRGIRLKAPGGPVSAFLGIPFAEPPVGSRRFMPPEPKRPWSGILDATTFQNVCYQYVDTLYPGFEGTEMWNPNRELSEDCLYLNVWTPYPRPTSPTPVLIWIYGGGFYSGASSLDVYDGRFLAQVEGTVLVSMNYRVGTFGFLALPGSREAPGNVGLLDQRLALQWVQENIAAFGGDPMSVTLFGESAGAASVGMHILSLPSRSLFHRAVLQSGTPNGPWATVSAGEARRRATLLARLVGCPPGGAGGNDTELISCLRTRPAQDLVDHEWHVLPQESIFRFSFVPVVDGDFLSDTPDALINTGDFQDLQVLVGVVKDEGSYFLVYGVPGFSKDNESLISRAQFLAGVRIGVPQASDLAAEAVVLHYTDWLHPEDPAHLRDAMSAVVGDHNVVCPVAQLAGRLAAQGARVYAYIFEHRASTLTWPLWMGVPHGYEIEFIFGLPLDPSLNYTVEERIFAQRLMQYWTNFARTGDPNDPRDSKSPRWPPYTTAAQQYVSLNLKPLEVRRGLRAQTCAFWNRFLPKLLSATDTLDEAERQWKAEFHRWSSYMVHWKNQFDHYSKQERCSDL

[11] = Dissociation constant against FK506 binding protein
Adenosine deaminase = Adenosine deaminase (Homo sapiens, UniProt P00813)
Sequence of Adenosine deaminase (P00813 whole entry): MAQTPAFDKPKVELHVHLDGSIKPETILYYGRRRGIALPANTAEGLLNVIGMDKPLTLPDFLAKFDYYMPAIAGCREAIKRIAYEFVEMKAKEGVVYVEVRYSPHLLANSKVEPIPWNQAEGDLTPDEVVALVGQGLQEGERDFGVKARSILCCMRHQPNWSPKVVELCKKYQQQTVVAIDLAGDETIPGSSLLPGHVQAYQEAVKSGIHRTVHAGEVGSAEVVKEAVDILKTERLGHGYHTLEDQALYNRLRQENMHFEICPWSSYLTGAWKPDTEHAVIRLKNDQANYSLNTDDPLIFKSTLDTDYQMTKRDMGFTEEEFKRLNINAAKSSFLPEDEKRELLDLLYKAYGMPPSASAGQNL
Description: Binding affinity towards adenosine deaminase

[12] = target: Adenylosuccinate synthetase isozyme 2 (Homo sapiens, UniProt P30520)
Sequence of Adenylosuccinate synthetase isozyme 2 (P30520 whole entry): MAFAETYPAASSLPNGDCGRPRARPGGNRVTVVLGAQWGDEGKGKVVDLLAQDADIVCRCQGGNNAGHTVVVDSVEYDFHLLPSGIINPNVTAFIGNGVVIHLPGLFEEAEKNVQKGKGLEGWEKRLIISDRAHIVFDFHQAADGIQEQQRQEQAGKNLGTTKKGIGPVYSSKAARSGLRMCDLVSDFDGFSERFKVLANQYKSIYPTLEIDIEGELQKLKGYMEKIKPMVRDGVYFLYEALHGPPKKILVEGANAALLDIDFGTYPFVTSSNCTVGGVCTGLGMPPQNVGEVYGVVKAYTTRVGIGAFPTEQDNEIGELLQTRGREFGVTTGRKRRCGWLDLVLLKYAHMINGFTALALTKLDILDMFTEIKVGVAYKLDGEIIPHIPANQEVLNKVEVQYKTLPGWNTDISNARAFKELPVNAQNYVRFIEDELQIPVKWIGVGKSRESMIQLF
Description: Inhibitory concentration against Adenylosuccinate synthetase

Stromelysin-1 [13] = target: T1, Stromelysin-1; assay: Dissociation constant for Matrix Metalloprotease-3 (MMP-3)
[14] = target: Intercellular adhesion molecule (ICAM-1), Integrin alpha-L/beta-2 (Homo sapiens, UniProt P05107+P20701)
Description: Inhibition of Leukocyte function associated antigen 1 (LFA-1)

[15] = target: Urokinase-type plasminogen activator (Homo sapiens, UniProt P00749)
Description: Binding affinity towards Urokinase-type plasminogen activator

[16] = Half life was determined; format: ADME; conditions: rat
[17] = target: Tyrosine-protein phosphatase non-receptor type 1 (Homo sapiens, UniProt P18031)
Description: Dissociation constant for Protein-tyrosine phosphatase 1B

[18] = target: T2, Glycogen phosphorylase, liver form (Mus musculus, UniProt Q9ET01)
T2 sequence (Q9ET01 whole entry): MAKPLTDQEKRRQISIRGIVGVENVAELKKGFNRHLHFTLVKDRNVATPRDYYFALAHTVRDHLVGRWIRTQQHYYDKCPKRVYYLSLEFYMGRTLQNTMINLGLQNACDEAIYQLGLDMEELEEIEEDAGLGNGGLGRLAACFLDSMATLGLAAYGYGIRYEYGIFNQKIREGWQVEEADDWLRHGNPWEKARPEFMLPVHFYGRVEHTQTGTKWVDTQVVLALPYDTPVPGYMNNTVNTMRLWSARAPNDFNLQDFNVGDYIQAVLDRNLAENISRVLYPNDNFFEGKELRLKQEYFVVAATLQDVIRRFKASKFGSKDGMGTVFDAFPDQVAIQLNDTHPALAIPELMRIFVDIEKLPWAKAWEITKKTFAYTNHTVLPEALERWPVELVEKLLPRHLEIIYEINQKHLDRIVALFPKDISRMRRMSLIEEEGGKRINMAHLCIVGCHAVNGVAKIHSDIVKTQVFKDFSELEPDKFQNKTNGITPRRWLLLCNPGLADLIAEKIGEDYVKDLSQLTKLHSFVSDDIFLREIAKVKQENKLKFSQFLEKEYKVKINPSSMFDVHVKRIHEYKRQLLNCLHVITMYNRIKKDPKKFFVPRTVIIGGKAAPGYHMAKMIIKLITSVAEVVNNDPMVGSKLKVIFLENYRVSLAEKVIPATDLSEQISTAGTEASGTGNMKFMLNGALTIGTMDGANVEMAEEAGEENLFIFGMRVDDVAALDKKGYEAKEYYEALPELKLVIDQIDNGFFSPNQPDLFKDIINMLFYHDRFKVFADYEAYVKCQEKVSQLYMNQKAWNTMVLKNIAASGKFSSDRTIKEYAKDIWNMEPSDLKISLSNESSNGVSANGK
Description: Inhibitory concentration against glycogen phosphorylase

Thymidylate synthase [19] = target: Thymidylate synthase (Lactobacillus casei, UniProt P00469)
Sequence of Thymidylate synthase (Lactobacillus casei, UniProt P00469) (P00469 whole entry): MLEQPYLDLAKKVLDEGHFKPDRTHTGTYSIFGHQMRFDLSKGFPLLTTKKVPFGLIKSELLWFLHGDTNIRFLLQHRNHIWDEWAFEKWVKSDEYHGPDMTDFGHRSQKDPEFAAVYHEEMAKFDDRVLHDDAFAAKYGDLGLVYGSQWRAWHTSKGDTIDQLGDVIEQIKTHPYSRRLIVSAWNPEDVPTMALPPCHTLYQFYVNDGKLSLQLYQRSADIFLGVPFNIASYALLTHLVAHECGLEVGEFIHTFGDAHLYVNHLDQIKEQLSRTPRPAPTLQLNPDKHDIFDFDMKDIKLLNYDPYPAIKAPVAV

Bcl-2-like protein 1 = Bcl-2-like protein 1 (Homo sapiens, UniProt Q07817); assay: Inhibitory concentration against B-Cell Lymphoma xL (Bcl-xL) Bak-peptide binding region; format: functional
Sequence of Bcl-2-like protein 1 (Q07817 whole entry): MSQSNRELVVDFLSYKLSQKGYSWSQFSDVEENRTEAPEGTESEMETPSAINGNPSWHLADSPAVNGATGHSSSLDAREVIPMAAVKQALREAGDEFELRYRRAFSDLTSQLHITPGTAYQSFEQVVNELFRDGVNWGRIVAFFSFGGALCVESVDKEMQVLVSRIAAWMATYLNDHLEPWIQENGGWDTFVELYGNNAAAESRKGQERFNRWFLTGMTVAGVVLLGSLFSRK

[20] = Binding affinity against Erythromycin-Resistance Methylase AM
Thymidylate synthase [21] = target: Thymidylate synthase (Homo sapiens, UniProt P04818); assay: Tested for binding affinity towards thymidylate synthase
[22] = Inhibition of Interleukin-2 receptor
[23] = target: Matrix metalloproteinase-9 (Homo sapiens, UniProt P14780); assay: Inhibition of gelatinase B, matrix metalloprotease-9 (MMP-9)
[24] = target: Cyclin-dependent kinase 2 (Homo sapiens, UniProt P24941); assay: Inhibition of Cyclin-Dependent Kinase 2
Acetylcholinesterase [25] = target: Acetylcholinesterase (Mus musculus, UniProt P21836)
Description: Dissociation constant towards Acetylcholinesterase in mouse

Description for Carbonic anhydrase: Inhibitory concentration against carbonic anhydrase

For `N=C(N)c1ccc2cccc(Nc3ncccn3)c2c1`, which Bioavailabiility [1] is on record?
Its Bioavailabiility is “Not orally available”.

With `O=C(O)/C=C/C=C/c1cccc(Oc2cc(Cl)cc(Cl)c2)c1` as the compound, how does the IC50 (Human papillomavirus [2]) read?
Its IC50 is 10 µM.

With `O=C(O)/C=C/C=C/c1ccc(Oc2ccccc2)cc1` as the compound, how does the IC50 (Human papillomavirus [2]) read?
The IC50 was 75 µM.

And the Kd (Human papillomavirus [3])?
Its Kd is 350 µM.

For `O=C(O)c1ccc(-c2cc(Cl)cc(Cl)c2)cc1`, which IC50 (Human papillomavirus [2]) is on record?
Its IC50 is 150 µM.

What about the Kd (Human papillomavirus [3]) of the same compound?
The Kd was 60 µM.

For `CC(=O)N[C@H]1[C@H](N)C=C(C(=O)O)C[C@@H]1N`, which IC50 [4] is on record?
Its IC50 is 31 µM.

With `CONC(=O)c1c(OCCOc2ccc(-c3ccc(C#N)cc3)cc2)ccc2ccccc12` as the compound, how does the IC50 (Stromelysin-1 [5]) read?
The IC50 was 0.34 µM.

Which Ki (Caspase-3) does the source give for `CNS(=O)(=O)c1ccc(O)c(C(=O)O)c1` here?
Its Ki is over 1000 µM.

For `CSc1nc(N)nc(N)n1`, which Kd [6] is on record?
Its Kd is 1000 µM.

For `NS(=O)(=O)c1ccc(CSCc2ccc(C(=O)O)cc2)cc1`, which IC50 (Carbonic anhydrase) is on record?
Its IC50 is 0.084 µM.

With `O=C(NCCCCN1CCOCC1)c1cc2ccccc2o1` as the compound, how does the IC50 (Interstitial collagenase) read?
The IC50 was over 10 µM.

And the IC50 (Collagenase 3)?
The IC50 was 10 µM.

Which Kd (Nucleic Acid) does the source give for `CCCNC(=O)c1ccc2nc(O)c(O)nc2c1` here?
The Kd was over 100 µM.

With `NC(=O)CSCc1ccc(S(N)(=O)=O)cc1` as the compound, how does the IC50 (Carbonic anhydrase) read?
The IC50 was 0.77 µM.

Which Ki [7] does the source give for `O=C(Nc1ccccc1)c1c(Nc2ccccc2)[nH]c(=O)[nH]c1=O` here?
Its Ki is 0.72 µM.

With `O=C(Nc1cccc(C(F)(F)F)c1)c1csc(-c2ccncc2)n1` as the compound, how does the Ki [7] read?
The Ki was 13 µM.

With `NCC[C@@H](NC(=O)c1ccco1)C(=O)N1CCNCC1` as the compound, how does the Kd (Nucleic Acid) read?
Its Kd is over 100 µM.

Which bioavailability [8] does the source give for `Nc1ccc2cccc(Nc3ncccn3)c2n1` here?
Its bioavailability is 38%.

Which IC50 [9] does the source give for `CO/N=C/c1ccc(O)c(O)c1` here?
The IC50 was 41 µM.

For `C1=CC2N=C3CCCCC3=C(NCCCCCCCNc3c4c(nc5ccccc35)CCCC4)C2C=C1` (stereo not drawn), which IC50 (Acetylcholinesterase [10]) is on record?
Its IC50 is 0.0004 µM.

For `O=C(Nc1ccccc1O)c1ccc(O)cc1`, which Kd [11] is on record?
The Kd was 800 µM.

Which Ki (Adenosine deaminase) does the source give for `NC(N)=Nc1nc(-c2ccc(CNc3cc4ccccc4[nH]3)s2)cs1` here?
The Ki was 1.2 µM.

For `O=CN(O)[C@@H](CCCN1C(=O)N[C@@]2(O[C@H](COP(=O)(O)O)[C@@H](O)[C@H]2O)C1=O)C(=O)O`, which IC50 [12] is on record?
Its IC50 is 0.043 µM.

Which Kd (Stromelysin-1 [13]) does the source give for `N#CCc1cccc(-c2ccc(O)cc2)c1` here?
The Kd was 20 µM.

With `NCC[C@@H](NC(=O)c1ccc(-c2cccc(NC(=O)c3ccc4nc(O)c(O)nc4c3)c2)o1)C(=O)N1CCNCC1` as the compound, how does the Kd (Nucleic Acid) read?
Its Kd is 6.5 µM.

Which IC50 [9] does the source give for `CCn1c2ccccc2c2cc(/C=N\OC)ccc21` here?
The IC50 was 40 µM.

With `CC(=O)N1CCN(C(=O)/C=C/c2cccc([N+](=O)[O-])c2)CC1` as the compound, how does the IC50 [14] read?
The IC50 was 80 µM.

For `CCn1c2ccccc2c2cc(/C=N\OCCO/N=C/c3ccc(O)c(O)c3)ccc21`, which IC50 [9] is on record?
Its IC50 is 0.064 µM.

For `Nc1ccc2cccc(O)c2n1`, which Ki [15] is on record?
Its Ki is 56 µM.

For `O=C(O)c1ccc2nc(O)c(O)nc2c1`, which Kd (Nucleic Acid) is on record?
The Kd was over 100 µM.

With `CC(=O)N1CCN(C(=O)/C=C/c2ccc(Sc3ccc4[nH]ccc4c3)c(Cl)c2)CC1` as the compound, how does the half-life [16] read?
Its half-life is 4.7 h.

Which Kd [17] does the source give for `O=C(O)c1cc2ccccc2s1` here?
Its Kd is over 1000 µM.

Which IC50 [18] does the source give for `CN(C)C(=O)[C@H](O)[C@H](Cc1ccccc1)NC(=O)c1cc2cc(Cl)ccc2[nH]1` here?
Its IC50 is 0.13 µM.

For `CCC(CC)N[C@@H]1C=C(C(=O)O)C[C@H](N)[C@H]1NC(C)=O`, which IC50 [4] is on record?
The IC50 was 0.085 µM.

Which Kd (Human papillomavirus [3]) does the source give for `O=C(O)CCCc1ccc(Oc2ccccc2)cc1` here?
Its Kd is 1900 µM.

Which IC50 (Acetylcholinesterase [10]) does the source give for `c1ccc(NCCCCCCCNc2c3c(nc4ccccc24)CCCC3)cc1` here?
The IC50 was 0.39 µM.

With `COc1cc(C(=O)C(=O)N2CCCC[C@H]2C(=O)OCCCOc2ccc(C(=O)Nc3ccc(O)cc3)cc2)cc(OC)c1OC` as the compound, how does the Kd [11] read?
The Kd was 0.019 µM.

Which Kd [11] does the source give for `COC(=O)[C@@H]1CCCCN1C(=O)C(=O)c1cc(OC)c(OC)c(OC)c1` here?
The Kd was 2 µM.

For `O=C(O)CC[C@H](NC(=O)c1ccc(S(=O)(=O)N2CCC[C@@H]2C(=O)O)cc1)C(=O)O`, which Ki (Thymidylate synthase [19]) is on record?
The Ki was 24 µM.

With `COCCNC(=O)c1cc2cc(Cl)ccc2[nH]1` as the compound, how does the IC50 [18] read?
The IC50 was 12.5 µM.

Which IC50 [4] does the source give for `CC(=O)N[C@@H]1[C@@H](N)CC(C(=O)O)=C[C@H]1NCCCc1ccccc1` here?
Its IC50 is 1.64 µM.

For `Cc1cc(C)c(N(Cc2ccccc2)S(=O)(=O)c2ccc(OCCNC(=O)c3cc4ccccc4o3)cc2)c(C(=O)NO)c1`, which IC50 (Interstitial collagenase) is on record?
The IC50 was over 10 µM.

For `CN(C)CC/C=C(\c1ccc(Cl)cc1)c1ccc(CCCc2ccc(/C(=C\CCN(C)C)c3ccc(Cl)cc3)cc2)cc1`, which IC50 (Bcl-2-like protein 1) is on record?
The IC50 was 10 µM.

For `Nc1nc(NC2Cc3ccccc3C2)nc(N2CCCCC2)n1`, which Ki [20] is on record?
Its Ki is 8 µM.

For `CN(C)CCC=C(c1ccc(Cl)cc1)c1ccc(Cl)cc1`, which IC50 (Bcl-2-like protein 1) is on record?
Its IC50 is 180 µM.

Which Kd [11] does the source give for `O=C(Nc1ccc(O)cc1)c1ccc(O)cc1` here?
Its Kd is 100 µM.

Which Ki (Thymidylate synthase [21]) does the source give for `Cc1ccc(S(=O)(=O)N2CCC[C@@H]2C(=O)O)cc1` here?
The Ki was 1100 µM.

With `O=C(O)CCNC(=O)[C@H]1CCCN1S(=O)(=O)c1ccc(C(=O)N[C@@H](CCC(=O)O)C(=O)O)cc1` as the compound, how does the Ki (Thymidylate synthase [19]) read?
Its Ki is 0.33 µM.

With `COc1ccc(-c2cc(C3CCN(C(=O)CNC(=O)[C@@H](CC(C)C)N=C(N)N)CC3)n(C)n2)c(Cl)c1Cl` as the compound, how does the IC50 [22] read?
Its IC50 is 3 µM.

Which IC50 [22] does the source give for `CC(C)C[C@@H](NC(=N)N)C(=O)NCC(=O)N1CCC(c2cc(-c3ccc(OCc4ccc(C(=O)O)o4)c(Cl)c3Cl)nn2C)CC1` here?
Its IC50 is 0.06 µM.

With `O=C(NCCOCCOCCNC(=O)c1cc2cc(Cl)ccc2[nH]1)c1cc2cc(Cl)ccc2[nH]1` as the compound, how does the IC50 [18] read?
The IC50 was 0.006 µM.

With `NCc1nc2ccc(NCc3ccccc3OCc3ccccc3)cc2[nH]1` as the compound, how does the IC50 [23] read?
The IC50 was 13 µM.

With `Oc1ccc(-c2ccccc2)cc1` as the compound, how does the Kd (Stromelysin-1 [13]) read?
The Kd was 280 µM.

With `NS(=O)(=O)c1ccc(N/N=C2\C(=O)Nc3ccc(Cl)cc32)cc1` [GW280670X] as the compound, how does the IC50 [24] read?
The IC50 was 0.03 µM.

For `O=CN(O)CC(=O)O` [HADACIDIN], which IC50 [12] is on record?
The IC50 was 3.5 µM.

With `O=C1NC(=O)[C@@]2(N1)O[C@H](COP(=O)(O)O)[C@@H](O)[C@H]2O` [PHOSPHOHYDANTOCIDIN] as the compound, how does the IC50 [12] read?
Its IC50 is 0.675 µM.

For `CC[N+](C)(CC)CCC[n+]1c(-c2ccccc2)c2cc(N)ccc2c2ccc(N)cc21` [PROPIDIUM], which Kd (Acetylcholinesterase [25]) is on record?
Its Kd is 1.1 µM.
